Where two headings read alike, the source gives them in different places. Peptide text beside a SMILES is read from it. * marks the point of attachment. Palmitoyl = CCCCCCCCCCCCCCCC(=O)*

One data set relates to LDLR knock-out mice. Briefly: Biliary lipid secretions, gallbladder cannulation, dyslipidemic LDLR KO mice. Conditions: dyslipidemic LDL KO mice, ip 25 mg/kg, 2 h. It is filed as in vivo, mouse. The procedure:
Wild-type C57B/L6J male mice were purchased from Janvier Labs (Le Genest Saint Isle, France). LDLR knock-out mice (males, C57B/L6J background) were obtained from The Jackson Laboratory (Bar Harbor, Me., USA). Mice were caged in animal rooms under specific pathogen free conditions at the animal facility of Rangueil (Anexplo platform, US006, Toulouse, France) with a light/dark schedule of 12 h/12 h and were fed ad libitum with a normal chow diet (#V1535 R/M-H, Ssniff, Germany). […]
Depending of experiments, 8 weeks old mice were intraperitoneally injected with PBS, the peptide of formula (I), the peptide of formula (II) and SCR. […] Bile flow (expressed in μL/min/100 g of body weight) was determined gravimetrically assuming a density of 1 g/mL for bile. […]
For bile acid analysis, 1 μL of bile samples was diluted with 99 μL of milliQ water then incubated with the work reagent (6 mg NAD, 0.5 M hydrazine hydrate buffer, 0.05 M Na-pyrophosphate) for 4 min. The mix was then incubated with a start reagent (0.03 M Tris-EDTA; 0.3 U/mL 3-alpha-OH steroid dehydrogenase) and measured for 30 min, under excitation of 340/330 nm and emission of 440/420 nm. […] The mix was then incubated with a start reagent (1 M MOPS, pH 8, 50 U/mL Choline oxidase) and measured for 67.5 min, under excitation of 340/330 and emission of 440/40. […]

A short description of data set [1]: Stability in plasma and serum (LC-HRMS). It is filed as in vitro ADME, human and mouse. Particulars: 37° C. The procedure: Peptide of Formula (I) or peptide of Formula (II) were prepared at a concentration of 200 μg/mL in PBS or mixed with EDTA plasma or serum from human (Etablissement Frangais du Sang, EFS) or mouse (C57BL/6J, cardiac puncture). Aliquots from PBS samples (40 μL) were incubated at 4° C. or 37° C. for 0, 1, 2 and 4 weeks. Aliquots from plasma and serum samples (50 μL) were incubated at 4° C. or 37° C. for 0, 1, 2, 4, 6, 12, 24 h.
A mixed solution of peptides of formula (I) and (II) was constituted and serially diluted in PBS to obtain seven standard solutions, ranging from 200 μg/mL to 0.2 μg/mL. In parallel, a mixed solution of labelled peptides of Formula (I) and (II) (Thermo Scientific, Biopolymers Darmstadt, Germany) was prepared in PBS at 100 μg/mL. The mixed solution of labelled peptides (25 μL) was added to 25 μL of standard solutions as well as to PBS, plasma and serum samples. Acetonitrile (150 μL) was added to each sample to precipitate plasma/serum proteins. After centrifugation (10,000×g, 4° C., 10 min), the clear supernatants (150 μL) were dried under a gentle stream of nitrogen (45° C.), reconstituted with 10% acetonitrile containing 0.1% formic acid (100 μL), and injected into the liquid chromatography-high-resolution mass spectrometry (LC-HRMS) system. LC-HRMS analyses were performed on an H-Class UPLC system (Waters Corporation, Milford, Mass., USA) by injection of 10 μL of samples onto an Acquity® Peptide CSH C18 column (2.1 mm×150 mm, 1.7 μm; Waters Corporation) held at 60° C. The mobile phase was composed of 5% acetonitrile as solvent A and 100% acetonitrile as solvent B, each containing 0.1% formic acid. The elution was carried out using a gradient of solvent B in solvent A over 20 min at a constant flow rate of 250 μL/min. […] HRMS detection was performed by a Synapt G2 HRMS Q-TOF mass spectrometer equipped with a Z-Spray interface for electrospray ionization (Waters Corporation). The resolution mode was applied in a mass-to-charge (m/z) ratio ranging from 200 to 4,000 at a mass resolution of 25,000 Full Width Half Maximum in the positive ionization mode. Ionization parameters were as follow: capillary voltage of 3 kV, cone voltage of 30 V, desolvatation gas flow of 900 L/hr, source temperature of 120° C., desolvatation temperature of 450° C., Nitrogen as desolvatation gas. Data were collected in the continuum mode at a rate of four spectra per second. […] Peptides were analyzed according to their major exact m/z (i 5 ppm, Table 1) and each peptide signal was normalized with that of its labelled internal standard. Peptide concentrations were calculated using calibration curves plotted from standard solutions (linear regression, 1/x weighted, origin excluded).

The mark [2] stands for this setting: EDTA plasma, read-out: recovery of the peptide in plasma.
Where [3] appears, read: serum, read-out: recovery of the peptide in serum.

Consider “Ac-RGAGSIREAGGAFGKREQAEEERYFRAQSRE-NH2 [peptide of formula (I), CH3CO-[SEQ ID NO: 1]-NH2]”, for which the “stimulation of biliary flux and biliary lipid secretion” value in the data set on LDLR knock-out mice was “maintained”. In addition, the values for the recovery at 24 h, 200 μg/mL in data set [1] (setting [2]) and in data set [1] (setting [3]) were 10% and 30%, respectively.
On the same counts, the results for `CCCCCCCCCCCCCCCC(=O)NCCCC[C@H](NC(=O)[C@H](CCC(=O)O)NC(=O)[C@H](CCCNC(=N)N)NC(=O)[C@H](CO)NC(=O)[C@H](CCC(N)=O)NC(=O)[C@H](C)NC(=O)[C@H](CCCNC(=N)N)NC(=O)[C@H](Cc1ccccc1)NC(=O)[C@H](Cc1ccc(O)cc1)NC(=O)[C@H](CCCNC(=N)N)NC(=O)[C@H](CCC(=O)O)NC(=O)[C@H](CCC(=O)O)NC(=O)[C@H](CCC(=O)O)NC(=O)[C@H](C)NC(=O)[C@H](CCC(N)=O)NC(=O)[C@H](CCC(=O)O)NC(=O)[C@H](CCCNC(=N)N)NC(=O)[C@H](CCCCN)NC(=O)CNC(=O)[C@H](Cc1ccccc1)NC(=O)[C@H](C)NC(=O)CNC(=O)CNC(=O)[C@H](C)NC(=O)[C@H](CCC(=O)O)NC(=O)[C@H](CCCNC(=N)N)NC(=O)[C@@H](NC(=O)[C@H](CO)NC(=O)CNC(=O)[C@H](C)NC(=O)CNC(=O)[C@H](CCCNC(=N)N)NC(C)=O)[C@@H](C)CC)C(N)=O` [peptide of formula (II), CH3CO-[SEQ ID NO: 1]-K-[palmitoyl]-NH2] (Ac-RGAGSIREAGGAFGKREQAEEERYFRAQSREK(Palmitoyl)-NH2) are “maintained”, 50% and 100%.
